How the values were obtained:
[1] = Dissolving test in ethanol/water, time to complete dissolution; assay type: physicochemical; conditions: 5 g in 95 g ethanol/water (equal parts by weight), 20° C., stirred, visual determination
Description: The different rates of dissolution of a solids composition according to the invention of Example 1a above and of forms of l-menthol that are not in accordance with the invention were compared.
To this end, 5 g of l-menthol or 5 g of the l-menthol-containing solids composition according to the invention of Example 1a were added to 95 g of a mixture, kept at a constant temperature of 20° C., of equal parts by weight of ethanol and water, and the time taken for the menthol or the menthol-containing solids composition to dissolve completely (visual determination) was calculated.
The dissolving test was carried out in a glass beaker having a diameter of 5 cm and a filling height of 7 cm. The contents of the glass beaker were stirred during the dissolving test in each case using a magnetic stirring bead having a length of 4 cm with a magnetic stirrer speed of 4 revolutions per second. The temperature was monitored with a Pt-100 thermometer which was immersed to a depth of 5 cm in the liquid, was located at a distance of 1 cm from the wall of the glass beaker and at the same time served as flow breaker.
The size of the crystals corresponded to the typical (commercial) crystal geometry of natural l-menthol.

[2] = cited from earlier work

Row | SMILES | Time to complete dissolution [1] [s] | also measured
1 | CC(C)[C@@H]1CC[C@@H](C)C[C@H]1O [Clumped menthol crystals, l-menthol] | 280 | 
2 | CC(C)[C@@H]1CC[C@@H](C)C[C@H]1O [Crystals of natural menthol, l-menthol] | 255 | 
3 | CC(C)[C@@H]1CC[C@@H](C)C[C@H]1O [Menthol crystals from Example 1, l-menthol] | 170 | 
4 | CC(C)[C@@H]1CC[C@@H](C)C[C@H]1O [Menthol pellets according to WO 03/101924, Example 1] [l-menthol] | 504 | 
5 | CC(C)[C@@H]1CC[C@@H](C)C[C@H]1O [flaked l-menthol, l-menthol] |  | adhesion and clumping ([2]; after 24 hours, as described in U.S. Pat. No. 3,064,311): adhesion and clumping of the flakes
6 | CC1CCC(C(C)C)C(O)C1 (stereo not drawn) [menthol pressed articles, menthol] |  | clumping and caking ([2]; stored for prolonged periods of over three months): gradually clump and cake together
